From the supplement of paper PMC10307832

How the values were obtained:
Assay in all cases: relative viability (nuclei count vs DMSO), 5 days (fraction); higher = more cells survive
Avagacestat + Trametinib = compound: NC(=O)[C@@H](CCC(F)(F)F)N(Cc1ccc(-c2ncon2)cc1F)S(=O)(=O)c1ccc(Cl)cc1 [Avagacestat] + CC(=O)Nc1cccc(-n2c(=O)n(C3CC3)c(=O)c3c(Nc4ccc(I)cc4F)n(C)c(=O)c(C)c32)c1 [Trametinib] (partner 0.02 µM)
Procedure, shortened: (§1)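 Lung cancer cell lines were pin-tool dosed in 1536-well plates on the day after seeding, with either a lone drug or a fixed anchor-drug dose plus five library-drug doses (not always all listed) in √10 steps. Nuclei were counted on 4× images after 5 days. Relative viability is the ratio of treated-well to vehicle-well nuclei counts, with each value a median of duplicate plates.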

Avagacestat + Navitoclax = compound: NC(=O)[C@@H](CCC(F)(F)F)N(Cc1ccc(-c2ncon2)cc1F)S(=O)(=O)c1ccc(Cl)cc1 [Avagacestat] + CC1(C)CCC(c2ccc(Cl)cc2)=C(CN2CCN(c3ccc(C(=O)NS(=O)(=O)c4ccc(N[C@H](CCN5CCOCC5)CSc5ccccc5)c(S(=O)(=O)C(F)(F)F)c4)cc3)CC2)C1 [Navitoclax] (partner 0.5 µM)
Procedure, shortened: as §1

Avagacestat + Phenformin = compound: NC(=O)[C@@H](CCC(F)(F)F)N(Cc1ccc(-c2ncon2)cc1F)S(=O)(=O)c1ccc(Cl)cc1 [Avagacestat] + N=C(N)NC(=N)NCCc1ccccc1 [Phenformin] (partner 250 µM)
Procedure, shortened: as §1

Avagacestat + Pemetrexed = compound: NC(=O)[C@@H](CCC(F)(F)F)N(Cc1ccc(-c2ncon2)cc1F)S(=O)(=O)c1ccc(Cl)cc1 [Avagacestat] + Nc1nc2[nH]cc(CCc3ccc(C(=O)N[C@@H](CCC(=O)O)C(=O)O)cc3)c2c(=O)[nH]1 [Pemetrexed] (partner 0.2 µM)
Procedure, shortened: as §1

Cell Line	relative viability (Avagacestat + Trametinib; first compound 0.08 µM)	relative viability (Avagacestat + Trametinib; first compound 0.253 µM)	relative viability (Avagacestat + Trametinib; first compound 0.8 µM)	relative viability (Avagacestat + Trametinib; first compound 2.53 µM)	relative viability (Avagacestat + Trametinib; first compound 8 µM)	relative viability (Avagacestat + Navitoclax; first compound 0.08 µM)	relative viability (Avagacestat + Navitoclax; first compound 0.253 µM)	relative viability (Avagacestat + Navitoclax; first compound 0.8 µM)	relative viability (Avagacestat + Navitoclax; first compound 2.53 µM)	relative viability (Avagacestat + Navitoclax; first compound 8 µM)	relative viability (Avagacestat + Phenformin; first compound 0.08 µM)	relative viability (Avagacestat + Phenformin; first compound 0.253 µM)	relative viability (Avagacestat + Phenformin; first compound 0.8 µM)	relative viability (Avagacestat + Phenformin; first compound 2.53 µM)	relative viability (Avagacestat + Phenformin; first compound 8 µM)	relative viability (Avagacestat + Pemetrexed; first compound 0.08 µM)	relative viability (Avagacestat + Pemetrexed; first compound 0.253 µM)	relative viability (Avagacestat + Pemetrexed; first compound 0.8 µM)	relative viability (Avagacestat + Pemetrexed; first compound 2.53 µM)	relative viability (Avagacestat + Pemetrexed; first compound 8 µM)
NCI-H520	0.814	0.792	0.611	0.497	0.616	1.16	1.15	1.06	0.95	1.06	0.648	0.612	0.494	0.436	0.529	0.792	0.801	0.844	0.703	0.559
NCI-H1793	0.52	0.536	0.459	0.519	0.479	0.434	0.491	0.507	0.347	0.396	0.411	0.291	0.337	0.284	0.319	0.907	1.03	1.07	0.94	0.785
NCI-H2347	0.283	0.324	0.388	0.327	0.283	0.907	0.866	0.923	0.663	0.797	0.363	0.537	0.602	0.448	0.357	0.426	0.454	0.447	0.465	0.406
HARA	0.704	0.764	0.757	0.536	0.647	1.39	1.27	1.23	1.17	1.2	0.486	0.516	0.42	0.486	0.42	0.227	0.203	0.226	0.257	0.244
NCI-H1915	0.29	0.305	0.254	0.3	0.252	0.84	0.812	0.798	0.807	0.828	0.396	0.396	0.368	0.412	0.357	0.521	0.573	0.537	0.5	0.52
NCI-H1734	0.776	0.796	0.682	0.71	0.633	1.11	0.96	0.875	0.777	0.724	0.451	0.433	0.366	0.373	0.384	0.437	0.398	0.401	0.426	0.434
NCI-H2342	0.725	0.771	0.784	0.766	0.693						0.634	0.53	0.629	0.59	0.588	0.849	0.803	0.903	0.725	0.782
CAL-12T	0.407	0.417	0.418	0.413	0.443	1.52	1.44	1.3	1.32	1.22	0.721	0.578	0.662	0.614	0.403	1.7	1.49	1.67	1.42	1.25
NCI-H1648	0.443	0.426	0.36	0.318	0.32											0.572	0.505	0.451	0.467	0.505
A549						1.64	1.65	1.27	1.26	1.25	0.276	0.218	0.181	0.226	0.538					
NCI-H727	0.443	0.452	0.387	0.434	0.499	0.408	0.461	0.596	0.339	0.459	0.684	0.489	0.778	0.421	0.613					
NCI-H661	0.589	0.632	0.604	0.548	0.521						0.301	0.293	0.298	0.296	0.3	0.953	1.01	0.92	0.86	0.909
NCI-H650	1.02	1.06	0.988	1	1.06						0.484	0.456	0.461	0.524	0.41	1.05	1.04	1.04	0.944	0.868
NCI-H1299						1.04	1.03	1.08	1.08	1.04										
LCLC-103H	0.721	0.726	0.772	0.567	0.61						0.344	0.298	0.348	0.343	0.294	0.448	0.412	0.433	0.456	0.486
NCI-H1703						1.16	0.993	1.17	1.11	0.891										
ABC-1											0.232	0.228	0.221	0.25	0.263					
NCI-H358	0.14	0.114	0.129	0.127	0.119						0.357	0.352	0.391	0.323	0.325	0.168	0.197	0.18	0.172	0.168
EBC-1						0.342	0.392	0.334	0.372	0.296										
Calu-6						1.07	0.99	0.922	1.06	0.81										
IA-LM						1.25	1.3	1.34	1.21	1.18										
